In US20260165323A1, “USE OF STROBILURIN TYPE COMPOUNDS FOR COMBATING PHYTOPATHOGENIC FUNGI CONTAINING AN AMINO ACID SUBSTITUTION F129L IN THE MITOCHONDRIAL CYTOCHROME B PROTEIN CONFERRING RESISTANCE TO QO […]” (priority 2022, published 2026):

Experiments:
[1] = system: Cercospora sojina (CERCSO); assay: Use example 7: microtest, growth of Cercospora sojina (CERCSO); assay type: cell-based; details: 31 ppm; relative growth vs compound-free control (100%), 7 days after inoculation
Description: (§1) The active compounds were formulated separately as a stock solution having a concentration of 10000 ppm in dimethyl sulfoxide. The stock solutions were mixed according to the ratio, pipetted onto a micro titer plate (MTP) and diluted with water to the stated concentrations. A spore suspension of one of the following fungal plant pathogens in aqueous bio malt solution • was then added for the respective use example: • Use example 5: Alternaria solani (ALTESO) • Use example 6: Botrytis cinerea (BOTRCI) • Use example 7: Cercospora sojina (CERCSO) • Use example 8: Colletotrichum orbiculare (COLLLA) • Use example 9: Leptosphaeria nodorum (LEPTNO) • Use example 10: Drechslera teres (PYRNTE) containing the amino acid substitution F129L in the mitochondrial cytochrome b protein conferring resistance to Qo inhibitors • Use example 11: Sclerotinia sclerotiorum (SCLESC), solute with ultrasonic from a filter membrane
(§2) The plates were placed in a water vapor-saturated chamber at a temperature of 18° C. Using an absorption photometer, the MTPs were measured at 405 nm 7 days after the inoculation.
(§3) The measured parameters were compared to the growth of the active compound-free control variant (100%) and the fungus-free blank value to determine the relative growth in % of the pathogens in the respective active compounds.

[2] = system: Drechslera teres (PYRNTE) containing the amino acid substitution F129L in the mitochondrial cytochrome b protein; assay: Use example 10: microtest, growth of Drechslera teres (PYRNTE) F129L; assay type: cell-based; details: 8 ppm; relative growth vs compound-free control (100%), 7 days
Description: as §1, §2, §3

[3] = system: Phakopsora pachyrhizi containing the amino acid substitution F129L in the mitochondrial cytochrome b protein; assay: Use Example 1: protective control of soybean rust on soybeans (PHAKPA P2); assay type: in vivo; details: inoculated 2 days after spraying, % diseased leaf area
Method in brief: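 Soybean seedling leaves sprayed to run-off with compound in acetone/DMSO–Wettol–water at the stated concentration, kept 2 days at 23-27° C, then inoculated with Qo-inhibitor-resistant F129L P. pachyrhizi. After 24 h at ~95% RH, 20-24° C, and up to 14 days in greenhouse, % diseased leaf area scored visually.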

[4] = system: Phakopsora pachyrhizi containing the amino acid substitution F129L in the mitochondrial cytochrome b protein; assay: Use Example 2: protective control of soybean rust on soybeans (PHAKPA P6); assay type: in vivo; details: inoculated six days after spraying, % diseased leaf area
Method in brief: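 Compound in acetone and/or DMSO with Wettol (99:1), diluted with water, was sprayed to run-off on potted soybean seedlings. After six days at 23–27°C and 60–80% RH, plants were inoculated with a Qo-resistant F129L strain and held 24 h at about 95% RH. Percent diseased leaf area was scored visually after up to 14 days.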

Puccinia recondita [5] = assay: Use Example 3: curative control of brown rust on wheat (PUCCRT K4); assay type: in vivo; details: % diseased leaf area
Method in brief: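 Wheat seedlings inoculated with Puccinia recondita spores, held 24 h at 95–99% RH, 20–24° C in dark, then 3 days in greenhouse before spraying to run-off (curative). Compound in acetone/DMSO–Wettol–water. After 5–7 further days at 20–24° C, 65–70% RH, % diseased leaf area scored visually.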

Puccinia recondita [6] = assay: Use Example 4: preventative control of brown rust on wheat (PUCCRT P7); assay type: in vivo; details: inoculated seven days after spraying, % diseased leaf area
Method in brief: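 First two leaves of potted wheat seedlings sprayed to run-off with compound in acetone/DMSO–emulsifier–water, then inoculated with Puccinia recondita spores seven days later. Plants held 24 h dark at 95–99% RH and 20–24 °C, then 9–11 days in greenhouse; diseased leaf area (%) scored visually.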

COC/C(=N\OCc1c(C)cccc1/C(=N\OC)C(=O)OC)c1cccc(Cl)c1 [reference compound]
Growth at 31 ppm (%) CERCSO Use ex. 7 [1]: 60%

CO/C=C(/C(=O)OC)c1cccc(C)c1CO/N=C(\COC)c1cccc(F)c1 [1.2-A-75, reference compound]
Growth at 8 ppm (%) PYRNTE F129L Use ex. 10 [2]: 34%

COC/C(=N\OCc1c(Cl)cccc1/C(=N\OC)C(=O)OC)c1cccc(Cl)c1 [compound 37]
% PHAKPA (F129L) Disease level P2 at 4 ppm [3]: 67% | % PHAKPA (F129L) Disease level P2 at 16 ppm [3]: 18% | % PHAKPA (F129L) Disease level P6 at 4 ppm [4]: 72% | % PHAKPA (F129L) Disease level P6 at 16 ppm [4]: 39% | % PUCCRT Disease level K4 at 4 ppm (Puccinia recondita [5]): 75% | % PUCCRT Disease level K4 at 16 ppm (Puccinia recondita [5]): 72% | % PUCCRT Disease level P7 at 4 ppm (Puccinia recondita [6]): 40% | % PUCCRT Disease level P7 at 16 ppm (Puccinia recondita [6]): 5% | Growth at 31 ppm (%) CERCSO Use ex. 7 [1]: 40%

CCOCC(=NOCc1c(Cl)cccc1C(=COC)C(=O)OC)c1ccccc1F [compound 18]
% PHAKPA (F129L) Disease level P2 at 4 ppm [3]: 6% | % PHAKPA (F129L) Disease level P2 at 16 ppm [3]: 0% | % PHAKPA (F129L) Disease level P6 at 4 ppm [4]: 22% | % PHAKPA (F129L) Disease level P6 at 16 ppm [4]: 2% | % PUCCRT Disease level K4 at 4 ppm (Puccinia recondita [5]): 77% | % PUCCRT Disease level K4 at 16 ppm (Puccinia recondita [5]): 32% | % PUCCRT Disease level P7 at 4 ppm (Puccinia recondita [6]): 80% | % PUCCRT Disease level P7 at 16 ppm (Puccinia recondita [6]): 30%

CO/C=C(/C(=O)OC)c1cccc(Cl)c1CO/N=C(\COC)c1cc(F)cc(F)c1 [compound 80]
% PHAKPA (F129L) Disease level P2 at 4 ppm [3]: 5% | % PHAKPA (F129L) Disease level P2 at 16 ppm [3]: 0% | % PHAKPA (F129L) Disease level P6 at 4 ppm [4]: 0% | % PHAKPA (F129L) Disease level P6 at 16 ppm [4]: 0% | % PUCCRT Disease level K4 at 4 ppm (Puccinia recondita [5]): 30% | % PUCCRT Disease level K4 at 16 ppm (Puccinia recondita [5]): 0% | % PUCCRT Disease level P7 at 4 ppm (Puccinia recondita [6]): 5% | % PUCCRT Disease level P7 at 16 ppm (Puccinia recondita [6]): 3%

CCOC/C(=N\OCc1c(Cl)cccc1/C(=N\OC)C(=O)NC)c1ccccc1F [compound 22]
% PHAKPA (F129L) Disease level P2 at 4 ppm [3]: 15% | % PHAKPA (F129L) Disease level P2 at 16 ppm [3]: 4% | % PHAKPA (F129L) Disease level P6 at 4 ppm [4]: 40% | % PHAKPA (F129L) Disease level P6 at 16 ppm [4]: 4% | % PUCCRT Disease level K4 at 4 ppm (Puccinia recondita [5]): 80% | % PUCCRT Disease level K4 at 16 ppm (Puccinia recondita [5]): 63% | % PUCCRT Disease level P7 at 4 ppm (Puccinia recondita [6]): 53% | % PUCCRT Disease level P7 at 16 ppm (Puccinia recondita [6]): 28%

CNC(=O)/C(=N/OC)c1cccc(Cl)c1CO/N=C(/C#Cc1ccc(F)cc1)COC [compound 6, (2E)-2-[3-chloro-2-[[(Z)-[3-(4-fluorophenyl)-1-(methoxymethyl)prop-2-ynylidene]amino]oxymethyl]phenyl]-2-methoxyimino-N-methyl-acetamide]
% PHAKPA (F129L) Disease level P2 at 4 ppm [3]: 8% | % PHAKPA (F129L) Disease level P2 at 16 ppm [3]: 0% | % PHAKPA (F129L) Disease level P6 at 4 ppm [4]: 28% | % PHAKPA (F129L) Disease level P6 at 16 ppm [4]: 5% | % PUCCRT Disease level K4 at 4 ppm (Puccinia recondita [5]): 38% | % PUCCRT Disease level K4 at 16 ppm (Puccinia recondita [5]): 2% | % PUCCRT Disease level P7 at 4 ppm (Puccinia recondita [6]): 8% | % PUCCRT Disease level P7 at 16 ppm (Puccinia recondita [6]): 0%

CO/C=C(/C(=O)OC)c1cccc(Cl)c1CO/N=C(\COC)c1ccccn1 [compound 129, Methyl (E)-2-[3-chloro-2-[[(Z)-[2-methoxy-1-(2-pyridyl)ethylidene]amino]oxymethyl]phenyl]-3-methoxy-prop-2-enoate]
% PHAKPA (F129L) Disease level P2 at 4 ppm [3]: 1% | % PHAKPA (F129L) Disease level P2 at 16 ppm [3]: 0% | % PHAKPA (F129L) Disease level P6 at 4 ppm [4]: 4% | % PHAKPA (F129L) Disease level P6 at 16 ppm [4]: 1% | % PUCCRT Disease level K4 at 4 ppm (Puccinia recondita [5]): 11% | % PUCCRT Disease level K4 at 16 ppm (Puccinia recondita [5]): 1% | % PUCCRT Disease level P7 at 16 ppm (Puccinia recondita [6]): 18%

COC/C(=N\OCc1c(Cl)cccc1/C(=N\OC)C(=O)OC)c1c(F)cccc1F [compound 83]
% PHAKPA (F129L) Disease level P2 at 4 ppm [3]: 2% | % PHAKPA (F129L) Disease level P2 at 16 ppm [3]: 0% | % PHAKPA (F129L) Disease level P6 at 4 ppm [4]: 0% | % PHAKPA (F129L) Disease level P6 at 16 ppm [4]: 0% | % PUCCRT Disease level K4 at 4 ppm (Puccinia recondita [5]): 37% | % PUCCRT Disease level K4 at 16 ppm (Puccinia recondita [5]): 18% | % PUCCRT Disease level P7 at 4 ppm (Puccinia recondita [6]): 32% | % PUCCRT Disease level P7 at 16 ppm (Puccinia recondita [6]): 12%

CO/C=C(/C(=O)OC)c1cccc(Br)c1CO/N=C(\COC)c1ccccc1 [compound 59]
% PHAKPA (F129L) Disease level P2 at 4 ppm [3]: 0% | % PHAKPA (F129L) Disease level P2 at 16 ppm [3]: 0% | % PHAKPA (F129L) Disease level P6 at 4 ppm [4]: 1% | % PHAKPA (F129L) Disease level P6 at 16 ppm [4]: 0% | % PUCCRT Disease level K4 at 4 ppm (Puccinia recondita [5]): 11% | % PUCCRT Disease level K4 at 16 ppm (Puccinia recondita [5]): 0% | % PUCCRT Disease level P7 at 4 ppm (Puccinia recondita [6]): 22% | % PUCCRT Disease level P7 at 16 ppm (Puccinia recondita [6]): 0%

CCOC/C(=N\OCc1c(Cl)cccc1/C(=N\OC)C(=O)OC)c1cccc(Cl)c1 [compound 33]
% PHAKPA (F129L) Disease level P2 at 4 ppm [3]: 93% | % PHAKPA (F129L) Disease level P2 at 16 ppm [3]: 67% | % PHAKPA (F129L) Disease level P6 at 4 ppm [4]: 75% | % PHAKPA (F129L) Disease level P6 at 16 ppm [4]: 72% | % PUCCRT Disease level K4 at 4 ppm (Puccinia recondita [5]): 73% | % PUCCRT Disease level K4 at 16 ppm (Puccinia recondita [5]): 73% | % PUCCRT Disease level P7 at 4 ppm (Puccinia recondita [6]): 65% | % PUCCRT Disease level P7 at 16 ppm (Puccinia recondita [6]): 35%

CNC(=O)/C(=N/OC)c1cccc(Cl)c1CO/N=C(\COC)c1ccccc1F [compound 21]
% PHAKPA (F129L) Disease level P2 at 4 ppm [3]: 7% | % PHAKPA (F129L) Disease level P2 at 16 ppm [3]: 0% | % PHAKPA (F129L) Disease level P6 at 4 ppm [4]: 16% | % PHAKPA (F129L) Disease level P6 at 16 ppm [4]: 1% | % PUCCRT Disease level K4 at 4 ppm (Puccinia recondita [5]): 63% | % PUCCRT Disease level K4 at 16 ppm (Puccinia recondita [5]): 28% | % PUCCRT Disease level P7 at 4 ppm (Puccinia recondita [6]): 33% | % PUCCRT Disease level P7 at 16 ppm (Puccinia recondita [6]): 6%

CNC(=O)/C(=N/OC)c1cccc(Cl)c1CO/N=C(\COC)c1ccc(Cl)c(F)c1 [compound 109]
% PHAKPA (F129L) Disease level P2 at 4 ppm [3]: 13% | % PHAKPA (F129L) Disease level P2 at 16 ppm [3]: 2% | % PHAKPA (F129L) Disease level P6 at 4 ppm [4]: 37% | % PHAKPA (F129L) Disease level P6 at 16 ppm [4]: 4% | % PUCCRT Disease level K4 at 4 ppm (Puccinia recondita [5]): 63% | % PUCCRT Disease level K4 at 16 ppm (Puccinia recondita [5]): 4% | % PUCCRT Disease level P7 at 4 ppm (Puccinia recondita [6]): 5% | % PUCCRT Disease level P7 at 16 ppm (Puccinia recondita [6]): 0%

CCOC/C(=N\OCc1c(Cl)cccc1/C(=N\OC)C(=O)OC)c1ccccc1 [compound 53]
% PHAKPA (F129L) Disease level P2 at 4 ppm [3]: 88% | % PHAKPA (F129L) Disease level P2 at 16 ppm [3]: 57% | % PHAKPA (F129L) Disease level P6 at 4 ppm [4]: 93% | % PHAKPA (F129L) Disease level P6 at 16 ppm [4]: 80% | % PUCCRT Disease level K4 at 4 ppm (Puccinia recondita [5]): 83% | % PUCCRT Disease level K4 at 16 ppm (Puccinia recondita [5]): 78% | % PUCCRT Disease level P7 at 4 ppm (Puccinia recondita [6]): 87% | % PUCCRT Disease level P7 at 16 ppm (Puccinia recondita [6]): 78%

CNC(=O)/C(=N/OC)c1cccc(Cl)c1CO/N=C(\COC)c1ccc(Cl)cc1F [compound 100]
% PHAKPA (F129L) Disease level P2 at 4 ppm [3]: 24% | % PHAKPA (F129L) Disease level P2 at 16 ppm [3]: 2% | % PHAKPA (F129L) Disease level P6 at 4 ppm [4]: 20% | % PHAKPA (F129L) Disease level P6 at 16 ppm [4]: 3% | % PUCCRT Disease level K4 at 4 ppm (Puccinia recondita [5]): 78% | % PUCCRT Disease level K4 at 16 ppm (Puccinia recondita [5]): 6% | % PUCCRT Disease level P7 at 4 ppm (Puccinia recondita [6]): 12% | % PUCCRT Disease level P7 at 16 ppm (Puccinia recondita [6]): 4%
